From ChEMBL document CHEMBL3817764, “Pyrimidine-based antimalarials: design strategies and antiplasmodial effects” (Medchemcomm, 2016)

Key:
Assay type in all cases: functional, organism-based
Plasmodium falciparum [1] = assay: Antiplasmodial activity against chloroquine-sensitive Plasmodium falciparum D6 by NBT assay
Plasmodium falciparum [2] = assay: Antiplasmodial activity against chloroquine-resistant Plasmodium falciparum W2 by NBT assay
Plasmodium falciparum [3] = assay: Antimalarial activity against chloroquine-sensitive Plasmodium falciparum D6 assessed as plasmodial LDH activity
Plasmodium falciparum [4] = assay: Antimalarial activity against chloroquine-resistant Plasmodium falciparum W2 assessed as plasmodial LDH activity

Row | SMILES | IC50 (Plasmodium falciparum [1]) | IC50 (Plasmodium falciparum [2]) | IC50 (Plasmodium falciparum [3]) | IC50 (Plasmodium falciparum [4])
1 | Cc1cc(N2CCCCC2)nc(NCCNc2ccnc3cc(Cl)ccc23)n1 | 6 nM | 16 nM | – | –
2 | Cc1cc(N2CCOCC2)nc(NCCNc2ccnc3cc(Cl)ccc23)n1 | 6 nM | 16 nM | – | –
3 | Clc1ccc2c(NCCCNc3cc(Cl)nc(N4CCOCC4)n3)ccnc2c1 | – | – | 50 nM | 50 nM
4 | Cc1cc(N2CCN(c3ccnc4cc(Cl)ccc34)CC2)nc(NC2CCCCC2)n1 | – | – | 130 nM | 130 nM
5 | Cc1cc(NCCNc2ccnc3cc(Cl)ccc23)nc(NCCO)n1 | – | – | 50 nM | 50 nM
6 | CCN1CCN(c2cc(C)nc(NCCCCNc3ccnc4cc(Cl)ccc34)n2)CC1 | 6 nM | 16 nM | – | –
7 | CCN1CCN(c2ccnc(NCCNc3ccnc4cc(Cl)ccc34)n2)CC1 | 6 nM | 16 nM | – | –
8 | COc1cc(Nc2nccc(N3CCN(c4ccnc5cc(Cl)ccc45)CC3)n2)cc(OC)c1 | – | – | 130 nM | 130 nM
9 | OCCCCNc1nccc(NCCCNc2ccnc3cc(Cl)ccc23)n1 | – | – | 50 nM | 50 nM
10 | CN1CCN(c2ccnc(NCCNc3ccnc4cc(Cl)ccc34)n2)CC1 | 6 nM | 16 nM | – | –
11 | Clc1ccc(Nc2nccc(N3CCN(c4ccnc5cc(Cl)ccc45)CC3)n2)cc1 | – | – | 130 nM | 130 nM
12 | Cc1cc(N2CCN(C)CC2)nc(NCCCCCCNc2ccnc3cc(Cl)ccc23)n1 | 6 nM | 16 nM | – | –
13 | Cc1cc(N2CCN(c3ccnc4cc(Cl)ccc34)CC2)nc(Cl)n1 | – | – | 130 nM | 130 nM
14 | CCN1CCN(c2nc(Cl)cc(NCCNc3ccnc4cc(Cl)ccc34)n2)CC1 | – | – | 50 nM | 50 nM
15 | OCCNc1nccc(NCCCNc2ccnc3cc(Cl)ccc23)n1 | – | – | 50 nM | 50 nM
16 | OCCCCCNc1nccc(NCCCCNc2ccnc3cc(Cl)ccc23)n1 | – | – | 50 nM | 50 nM
17 | Cc1ccc(Nc2nccc(N3CCN(c4ccnc5cc(Cl)ccc45)CC3)n2)cc1 | – | – | 130 nM | 130 nM
18 | Cc1cc(N2CCN(c3ccnc4cc(Cl)ccc34)CC2)nc(Nc2ccc(Cl)cc2)n1 | – | – | 130 nM | 130 nM
19 | Cc1cc(N2CCOCC2)nc(NCCCCNc2ccnc3cc(Cl)ccc23)n1 | 6 nM | 16 nM | – | –
20 | Clc1ccc2c(NCCCNc3cc(Cl)nc(Cl)n3)ccnc2c1 | – | – | 50 nM | 50 nM
21 | Cc1cc(NCCCCNc2ccnc3cc(Cl)ccc23)nc(NCCO)n1 | – | – | 50 nM | 50 nM
22 | Cc1ccc(Nc2nc(C)cc(N3CCN(c4ccnc5cc(Cl)ccc45)CC3)n2)cc1 | – | – | 130 nM | 130 nM

Row | SMILES | IC50 (Plasmodium falciparum [1]) | IC50 (Plasmodium falciparum [2]) | IC50 (Plasmodium falciparum [3]) | IC50 (Plasmodium falciparum [4])
23 | CN1CCN(c2nccc(NCCNc3ccnc4cc(Cl)ccc34)n2)CC1 | – | – | 50 nM | 50 nM
24 | Fc1ccc(Nc2nccc(N3CCN(c4ccnc5cc(Cl)ccc45)CC3)n2)cc1 | – | – | 130 nM | 130 nM
25 | Cc1cc(N2CCN(c3ccnc4cc(Cl)ccc34)CC2)nc(NCCCO)n1 | – | – | 130 nM | 130 nM
26 | Cc1cc(NCCNc2ccnc3cc(Cl)ccc23)nc(NCCCCCCO)n1 | – | – | 50 nM | 50 nM
27 | Cc1cc(NCCCNc2ccnc3cc(Cl)ccc23)nc(NCCCO)n1 | – | – | 50 nM | 50 nM
28 | Clc1ccc2c(NCCNc3ccnc(N4CCCCC4)n3)ccnc2c1 | – | – | 50 nM | 50 nM
29 | Cc1cc(NCCCCNc2ccnc3cc(Cl)ccc23)nc(NCCCCCO)n1 | – | – | 50 nM | 50 nM
30 | OCCCCNc1nccc(NCCCCNc2ccnc3cc(Cl)ccc23)n1 | – | – | 50 nM | 50 nM
31 | COc1ccc(Nc2nc(C)cc(N3CCN(c4ccnc5cc(Cl)ccc45)CC3)n2)cc1 | – | – | 130 nM | 130 nM
32 | CCN1CCN(c2nccc(NCCCNc3ccnc4cc(Cl)ccc34)n2)CC1 | – | – | 50 nM | 50 nM
33 | COc1cc(Nc2nc(C)cc(N3CCN(c4ccnc5cc(Cl)ccc45)CC3)n2)cc(OC)c1 | – | – | 130 nM | 130 nM
34 | Clc1ccc2c(NCCNc3ccnc(Cl)n3)ccnc2c1 | – | – | 50 nM | 50 nM
35 | CCN1CCN(c2nccc(NCCNc3ccnc4cc(Cl)ccc34)n2)CC1 | – | – | 50 nM | 50 nM
36 | CCN1CCN(c2ccnc(NCCCNc3ccnc4cc(Cl)ccc34)n2)CC1 | 6 nM | 16 nM | – | –
37 | Clc1ccc2c(NCCNc3nccc(N4CCCCC4)n3)ccnc2c1 | 6 nM | 16 nM | – | –
38 | Clc1ccc2c(NCCCNc3ccnc(N4CCCCC4)n3)ccnc2c1 | – | – | 50 nM | 50 nM
39 | Cc1cc(NCCCNc2ccnc3cc(Cl)ccc23)nc(NCCCCCCO)n1 | – | – | 50 nM | 50 nM
40 | Cc1cc(N2CCN(c3ccnc4cc(Cl)ccc34)CC2)nc(NCCO)n1 | – | – | 130 nM | 130 nM
41 | CCN1CCN(c2cc(C)nc(NCCCNc3ccnc4cc(Cl)ccc34)n2)CC1 | 6 nM | 16 nM | – | –
42 | CN1CCN(c2nc(Cl)cc(NCCNc3ccnc4cc(Cl)ccc34)n2)CC1 | – | – | 50 nM | 50 nM
43 | Cc1cc(N2CCCCC2)nc(NCCCCNc2ccnc3cc(Cl)ccc23)n1 | 6 nM | 16 nM | – | –
44 | Clc1ccc2c(NCCNc3nccc(N4CCOCC4)n3)ccnc2c1 | 6 nM | 16 nM | – | –

Row | SMILES | IC50 (Plasmodium falciparum [1]) | IC50 (Plasmodium falciparum [2]) | IC50 (Plasmodium falciparum [3]) | IC50 (Plasmodium falciparum [4])
45 | OCCCCCCNc1nccc(NCCCNc2ccnc3cc(Cl)ccc23)n1 | – | – | 50 nM | 50 nM
46 | OCCCNc1nccc(NCCCNc2ccnc3cc(Cl)ccc23)n1 | – | – | 50 nM | 50 nM
47 | Cc1cc(NCCCNc2ccnc3cc(Cl)ccc23)nc(NCCCCCO)n1 | – | – | 50 nM | 50 nM
48 | OCCCCCCNc1nccc(NCCNc2ccnc3cc(Cl)ccc23)n1 | – | – | 50 nM | 50 nM
49 | OCCCNc1nccc(NCCCCNc2ccnc3cc(Cl)ccc23)n1 | – | – | 50 nM | 50 nM
50 | Clc1ccc2c(NCCNc3cc(Cl)nc(Cl)n3)ccnc2c1 | – | – | 50 nM | 50 nM
51 | OCCCNc1nccc(NCCNc2ccnc3cc(Cl)ccc23)n1 | – | – | 50 nM | 50 nM
52 | Cc1cc(N2CCN(c3ccnc4cc(Cl)ccc34)CC2)nc(N2CCCC2)n1 | – | – | 130 nM | 130 nM
53 | Clc1ccc2c(NCCNc3cc(Cl)nc(N4CCOCC4)n3)ccnc2c1 | – | – | 50 nM | 50 nM
54 | Clc1ccc2c(N3CCN(c4ccnc(Nc5ccc(Br)cc5)n4)CC3)ccnc2c1 | – | – | 130 nM | 130 nM
55 | Clc1ccc2c(NCCNc3nc(Cl)cc(Cl)n3)ccnc2c1 | 6 nM | 16 nM | – | –
56 | Cc1cc(N2CCN(C)CC2)nc(NCCCCNc2ccnc3cc(Cl)ccc23)n1 | 6 nM | 16 nM | – | –
57 | OCCNc1nccc(NCCNc2ccnc3cc(Cl)ccc23)n1 | – | – | 50 nM | 50 nM
58 | Cc1cc(NCCCCNc2ccnc3cc(Cl)ccc23)nc(NCCCCO)n1 | – | – | 50 nM | 50 nM
59 | Cc1cc(NCCNc2ccnc3cc(Cl)ccc23)nc(NCCCO)n1 | – | – | 50 nM | 50 nM
60 | Cc1cc(N2CCN(c3ccnc4cc(Cl)ccc34)CC2)nc(Nc2ccc(F)cc2)n1 | – | – | 130 nM | 130 nM
61 | OCCCCNc1nccc(NCCNc2ccnc3cc(Cl)ccc23)n1 | – | – | 50 nM | 50 nM
62 | Cc1cc(NCCCCNc2ccnc3cc(Cl)ccc23)nc(NCCCO)n1 | – | – | 50 nM | 50 nM
63 | Cc1cc(N2CCN(c3ccnc4cc(Cl)ccc34)CC2)nc(Nc2ccccc2)n1 | – | – | 130 nM | 130 nM
64 | Clc1ccc2c(N3CCN(c4ccnc(Nc5ccccc5)n4)CC3)ccnc2c1 | – | – | 130 nM | 130 nM
65 | Cc1cc(N2CCOCC2)nc(NCCCCCCNc2ccnc3cc(Cl)ccc23)n1 | 6 nM | 16 nM | – | –
66 | CN1CCN(c2nc(Cl)cc(NCCCNc3ccnc4cc(Cl)ccc34)n2)CC1 | – | – | 50 nM | 50 nM

Row | SMILES | IC50 (Plasmodium falciparum [1]) | IC50 (Plasmodium falciparum [2]) | IC50 (Plasmodium falciparum [3]) | IC50 (Plasmodium falciparum [4])
67 | Cc1cc(NCCCCNc2ccnc3cc(Cl)ccc23)nc(NCCCCCCO)n1 | – | – | 50 nM | 50 nM
68 | Cc1cc(N2CCN(c3ccnc4cc(Cl)ccc34)CC2)nc(N2CCOCC2)n1 | – | – | 130 nM | 130 nM
69 | CCN1CCN(c2nc(Cl)cc(NCCCNc3ccnc4cc(Cl)ccc34)n2)CC1 | – | – | 50 nM | 50 nM
70 | Cc1cc(NCCCNc2ccnc3cc(Cl)ccc23)nc(NCCO)n1 | – | – | 50 nM | 50 nM
71 | Clc1ccc2c(NCCNc3cc(Cl)nc(N4CCCCC4)n3)ccnc2c1 | – | – | 50 nM | 50 nM
72 | Clc1ccc2c(NCCCNc3ccnc(N4CCOCC4)n3)ccnc2c1 | – | – | 50 nM | 50 nM
73 | OCCCCCCNc1nccc(NCCCCNc2ccnc3cc(Cl)ccc23)n1 | – | – | 50 nM | 50 nM
74 | OCCNc1nccc(NCCCCNc2ccnc3cc(Cl)ccc23)n1 | – | – | 50 nM | 50 nM
75 | COc1ccc(Nc2nccc(N3CCN(c4ccnc5cc(Cl)ccc45)CC3)n2)cc1 | – | – | 130 nM | 130 nM
76 | Cc1cc(N2CCN(c3ccnc4cc(Cl)ccc34)CC2)nc(N2CCNCC2)n1 | – | – | 130 nM | 130 nM
77 | Cc1cc(NCCNc2ccnc3cc(Cl)ccc23)nc(NCCCCCO)n1 | – | – | 50 nM | 50 nM
78 | Cc1cc(NCCCNc2ccnc3cc(Cl)ccc23)nc(NCCCCO)n1 | – | – | 50 nM | 50 nM
79 | OCCCCCNc1nccc(NCCCNc2ccnc3cc(Cl)ccc23)n1 | – | – | 50 nM | 50 nM
80 | Cc1cc(N2CCN(c3ccnc4cc(Cl)ccc34)CC2)nc(Nc2ccc(Br)cc2)n1 | – | – | 130 nM | 130 nM
81 | Cc1cc(NCCNc2ccnc3cc(Cl)ccc23)nc(NCCCCO)n1 | – | – | 50 nM | 50 nM
82 | Clc1ccc2c(NCCCNc3cc(Cl)nc(N4CCCCC4)n3)ccnc2c1 | – | – | 50 nM | 50 nM
83 | OCCCCCNc1nccc(NCCNc2ccnc3cc(Cl)ccc23)n1 | – | – | 50 nM | 50 nM
84 | CN1CCN(c2nccc(NCCCNc3ccnc4cc(Cl)ccc34)n2)CC1 | – | – | 50 nM | 50 nM
85 | OCCNc1nccc(N2CCN(c3ccnc4cc(Cl)ccc34)CC2)n1 | – | – | 130 nM | 130 nM
86 | Clc1ccc2c(NCCCNc3ccnc(Cl)n3)ccnc2c1 | – | – | 50 nM | 50 nM
87 | OCCCNc1nccc(N2CCN(c3ccnc4cc(Cl)ccc34)CC2)n1 | – | – | 130 nM | 130 nM
